The results in this text go back to patent publication EP4699605A1, “USE OF NOVEL COMPOUND FOR TREATING INTRACTABLE DISEASES” (YJ Cerapeutics Inc., priority 2023, dated 2024).

The test system of one test is astrocytes. The experiment in a line: Astrocyte activation in spinal cord of SNI model (GFAP immunohistochemistry and Western blot). The format is in vivo, Sprague-Dawley rats. Conditions: L4-5 spinal cord. Here is the method:
(§1) To be used as a peripheral nerve injury animal model, a sciatic nerve injury (SNI) model was prepared (FIG. 1C). Specifically, 200 to 220 g of male adult Sprague-Dawley rats were anesthetized by intraperitoneal injection of chloral hydrate (500 mg/kg), and then three terminal branches (tibial, common peroneal, and sural nerves) of the right sciatic nerve were approached, and the tibia nerve and the peroneal nerve were tightly ligated with 4-0 silk, and neurectomy was performed at a distal 3 mm position of the ligation site. At this time, a Sham group was a group that exposed only the sciatic nerve without damage.
The activation of astrocytes in the spinal cord, known to play an important role in the process of inducing/persisting neuropathic pain, was confirmed by immunohistochemical staining and Western blot analysis using an anti-GFAP antibody against an intermediate filament protein, Glial fibrillary acidic protein (GFAP) of astrocytes, a marker of astrocyte activation, as in Example 3-1.

A further test deals with inflammatory factors. In words: Inflammatory factor expression in L4-5 spinal cord of SNI model (RT-PCR, Western blot). The class given is in vivo, Sprague-Dawley rats. Conditions: ipsilateral spinal cord tissue, 4 weeks after nerve injury, RT-PCR and Western blot. Here is the method:
as §1
It was known that when neuropathic pain occurred, the activation of microglia and astrocytes expressed inflammatory factors including cytokines and chemokines to cause excessive excitation of surrounding neurons. Therefore, in order to confirm changes in inflammatory factor expression by YJ102 administration in the SNI animal model 4 weeks after nerve injury, RNA and protein were extracted from L4-5 spinal cord tissue and RT-PCR and Western blot analysis were performed. Specifically, for RT-PCR analysis, RNA was isolated from spinal cord tissue sections using a TRIZOL Reagent (Invitrogen) according to a manual, and 20 µl of the total mixture was prepared by using 1 µg of total RNA, and cDNA was synthesized using MMLV reverse transcriptase (Invitrogen). […]
Background: A western blot detects proteins with antibodies after separation by electrophoresis.

Test [1] deals with IMQ psoriasis animal model. In words: PASI scores (erythema, scaling) in IMQ psoriasis animal model. The class given is in vivo, C57BL/6 mouse. The conditions noted are these: 5 mg/kg intraperitoneally on Day 2, Day 3, Day 4, vs Vehicle group. Here is the method:
(§2) Psoriasis caused by excessive production of skin cells was a chronic skin disease associated with various factors, including autoimmune diseases, and its symptoms included red and thickened skin and abnormally occurring scaling. […] Specifically, the back region of a C57BL/6 mouse (male, 18 to 20 g, 8 weeks) (Daehan Biolink, Eumseong, Korea) was shaved to remove hair, and then applied with IMQ cream (83 mg/day) (5%) for consecutive 5 days from Day 0 to Day 4 to induce psoriasis-like skin inflammation, and a normal control mouse (Sham) was applied with Vaseline cream (FIG. 16A).
In order to confirm the effect of YJ102 (Chemical Formula 1), a compound of the present disclosure, on psoriasis, YJ102 dissolved in DMSO, methyl pyrrolidinone, and water (1 : 1.5 : 1) was administered intraperitoneally (5 mg/kg) for a total of 3 days on Day 2, Day 3, and Day 4, and the Vehicle group was administered in the same amount of a solution of DMSO, methyl pyrrolidinone, and water (1 : 1.5 : 1) (FIG. 16A). To assess daily skin changes, PASI scores were used for erythema and scaling. The PASI score was evaluated as a severity scale of 0 to 4, in which 0 meant none, 1 meant mild, 2 meant moderate, 3 meant severe, and 4 meant very severe. (PASI Reference: Yashpal Manchanda, Abhishek De, Sudip Das, and Disha Chakraborty. Disease Assessment in Psoriasis. Indian J Dermatol. 2023 May-Jun; 68 (3): 278-281.)

The subject of test [2] is IMQ psoriasis animal model. In words: Spleen hypertrophy in IMQ psoriasis animal model. The class given is in vivo, C57BL/6 mouse. Conditions: Day 6, vs Vehicle group. Here is the method: as §2
The spleen hypertrophy occurred in mice induced with psoriasis, the longitudinal diameter of the spleen in psoriasis patients was increased compared to that of non-psoriasis patients, and a correlation between the disease duration and the spleen diameter was reported. Therefore, on Day 6, the spleen of the mouse in each group was extracted and weighed to determine the degree of spleen hypertrophy.

Test [3] has as its system p75 neurotrophin receptor. The experiment in a line: p75 expression in urothelium after SCI (RT-PCR, Western blot). The format is in vivo, Sprague-Dawley rats. Conditions: urothelium after spinal cord injury (days 1 and 7). The source says:
(§3) The effect of YJ102 on urothelial cell apoptosis in bladder tissue after spinal cord injury was confirmed by TUNEL staining, and the protein levels of cleaved caspase-3 indicating caspase-3 activation, and UPIII as a urothelial marker were confirmed by Western blot analysis using p75 (Promega), cleaved caspase-3 (Cell signaling technology), and UPIII (Abcam) as primary antibodies. In addition, in order to confirm whether the mechanism of apoptosis was caused by a p75 neurotrophin receptor, which was involved in urothelial apoptosis, the expression level of p75 was confirmed by RT-PCR, Western blot analysis, and immunofluorescence staining. For RT-PCR analysis, the obtained bladder tissue sections were frozen in liquid nitrogen, and ground in a mortar and pestle to be completely lysed, and then RNA was isolated using a TRIZOL Reagent (Invitrogen) according to a manual, and 20 µl of the total mixture was prepared by using 1 µg of total RNA, and cDNA was synthesized using MMLV reverse transcriptase (Invitrogen).

The test system of another test is bladder wall. In words: Bladder hypertrophy (H&E) and collagen content in bladder muscle (Masson's trichrome) after spinal cord injury. The class given is in vivo, Sprague-Dawley rats. The source says: As one indicator of bladder dysfunction, bladder hypertrophy, which was a thicker bladder wall, and changes in collagen content in the bladder muscle were identified. Specifically, a spinal cord injury […] animal model was perfused through the left ventricle, and fixed with 4% paraformaldehyde, and the bladder was extracted, and then embedded in an optimal cutting temperature (OCT) compound, and the tissue was sectioned at a 10 µm thickness using a cryostat. In order to measure the bladder wall thickness, Hematoxylene & Eosin (Abcam) staining was performed according to a manufacturer's protocol, and in order to measure the collagen content in the muscle, Masson's trichrome (Sigma-Aldrich) staining was performed.

The test system of another test is urothelial cells. The experiment in a line: Urothelial cell apoptosis in bladder after SCI (TUNEL, cleaved caspase-3, UPIII Western blot). The format is in vivo, Sprague-Dawley rats. Conditions: day 3 after spinal cord injury.
Description: as §3

The test system of another test is Raw 264.7. In words: proNGF production in LPS-stimulated macrophage cell line. The class given is cell-based. The conditions noted are these: Raw 264.7 stimulated with 1 µg/ml of LPS; YJ102 treated 30 minutes before LPS. Here is the method:
In order to determine whether YJ102 affected the production of proNGF as a ligand of p75, the expression of proNGF in the bladder was confirmed by RT-PCR, Western blot analysis, and immunofluorescence staining. In addition, for further verification, a macrophage cell line Raw 264.7 (Korea Cell Line Bank, Seoul, Korea) was stimulated with 1 µg/ml of LPS, and the effect of YJ102 on the production of proNGF was investigated. At this time, YJ102 was dissolved in DMSO and treated 30 minutes before LPS treatment.

[4] abbreviates: day 1 after spinal cord injury, H&E.

Take `CCc1ccc(N(C(=O)COC)c2nc3cc(Cl)ccc3o2)cc1` [YJ102]: the GFAP expression intensity result in the test on astrocytes is on record as “significantly decreased”. The “expression of inflammatory factors” value with inflammatory factors is recorded as “significantly reduced”. Also, in test [1], the “degree of erythema (PASI score)” value is listed as “significantly lower” and the “degree of scaling (PASI score)” value is reported as “significantly lower”. Also, in test [2], the “size of the spleen” value was “significantly reduced” and the “weight of the spleen” value was “significantly reduced”. Besides, the p75 expression result in test [3] is given as “significantly reduced”. The “collagen content in the muscle” value in the test on bladder wall (after spinal cord injury, Masson's trichrome) was “maintained at a level almost similar to that of the normal group”. Moreover, in the test with bladder wall (setting [4]), the “thickness of the lamina propria” value is listed as “significantly reduced”, the “thickness of the muscle layer” value was “significantly reduced” and the “thickness of the urothelium layer” value is “significantly reduced”. The “reduction of the level of UPIII (urothelial loss)” value in the test on urothelial cells (Western blot) was “inhibited”. In the test on urothelial cells (cleaved caspase-3 Western blot), the caspase-3 activation entry is “inhibited”. The “number of TUNEL-positive cells in the urothelium” value in the test with urothelial cells (vs Vehicle group) is “significantly reduced”. In the test with Raw 264.7, the “mRNA and protein expression of proNGF” value is listed as “significantly inhibited”.
